What is called IC50 is the concentration that gives 50% inhibition. Low readings indicate higher potency, high ones lower potency.

The structures appear in SMILES notation.

For the assay, the target named is POLRMT (Homo sapiens (Human), UniProt O00411). Briefly: POLRMT homogeneous TR-FRET mitochondrial transcription assay. The assay is classed as biochemical. To be noted: inhibition of POLRMT; TR-FRET detection of 407 bp RNA transcript; 7.5 nM POLRMT, 15 nM TFB2M, 30 nM TFAM, 60 minutes at 37° C. How it is done: The inhibitory activity of the compounds of the present invention against POLRMT were determined by assays based on Bergbrede, T., et al., “An adaptable high-throughput technology enabling the identification of specific transcription modulators,” SLAC Discov., 22, 378-386 (2017).
Sequence of POLRMT (O00411 42-1230): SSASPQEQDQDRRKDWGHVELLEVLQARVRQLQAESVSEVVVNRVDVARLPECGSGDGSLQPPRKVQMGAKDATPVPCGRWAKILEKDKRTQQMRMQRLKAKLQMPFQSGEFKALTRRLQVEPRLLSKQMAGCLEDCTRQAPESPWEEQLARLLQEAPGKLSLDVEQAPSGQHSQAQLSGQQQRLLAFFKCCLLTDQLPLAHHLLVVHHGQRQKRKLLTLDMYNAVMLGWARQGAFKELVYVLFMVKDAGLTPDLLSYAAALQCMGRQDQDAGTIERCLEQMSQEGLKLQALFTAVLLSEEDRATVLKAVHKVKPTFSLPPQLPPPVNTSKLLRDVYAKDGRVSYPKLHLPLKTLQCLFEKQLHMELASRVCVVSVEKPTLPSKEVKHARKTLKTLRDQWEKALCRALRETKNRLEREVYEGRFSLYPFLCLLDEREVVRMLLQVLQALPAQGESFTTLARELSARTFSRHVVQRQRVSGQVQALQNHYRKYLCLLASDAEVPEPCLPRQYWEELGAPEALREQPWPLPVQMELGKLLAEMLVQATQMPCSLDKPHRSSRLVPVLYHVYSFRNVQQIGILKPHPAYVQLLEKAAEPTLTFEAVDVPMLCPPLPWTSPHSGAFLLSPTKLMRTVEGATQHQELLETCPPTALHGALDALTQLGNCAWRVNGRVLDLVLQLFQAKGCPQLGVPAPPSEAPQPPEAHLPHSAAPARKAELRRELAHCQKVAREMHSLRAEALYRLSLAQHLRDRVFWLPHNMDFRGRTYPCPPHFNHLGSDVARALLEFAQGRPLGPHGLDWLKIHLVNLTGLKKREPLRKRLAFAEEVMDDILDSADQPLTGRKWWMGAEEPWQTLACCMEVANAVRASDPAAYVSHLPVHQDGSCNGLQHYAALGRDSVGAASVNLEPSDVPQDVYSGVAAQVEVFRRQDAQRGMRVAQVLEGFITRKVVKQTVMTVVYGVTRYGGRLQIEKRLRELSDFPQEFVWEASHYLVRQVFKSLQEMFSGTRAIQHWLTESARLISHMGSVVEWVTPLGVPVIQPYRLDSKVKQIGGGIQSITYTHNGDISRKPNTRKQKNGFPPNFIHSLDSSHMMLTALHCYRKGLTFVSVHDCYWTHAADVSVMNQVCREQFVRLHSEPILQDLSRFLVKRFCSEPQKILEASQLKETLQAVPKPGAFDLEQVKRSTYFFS
The ability of some compounds of the present invention to inhibit POLRMT were determined in a homogeneous TR-FRET Assay using high-throughput screening in a 384-well plate format. This method is used to monitor the activity of mitochondrial transcription through measurement of its product, a 407 bp long RNA transcript. Detection of the product is facilitated by hybridization of two DNA-oligonucleotide probes to specific and adjacent sequences within the RNA product sequence. Upon annealing of the probes, two fluorophores are coupled directly to an acceptor nucleotide probe (ATTO647, 5′), or introduced via a coupled streptavidin with a biotinylated donor nucleotide probe (Europium cryptate) that is brought into sufficient proximity to serve as a fluorescence-donor-acceptor pair. Thus, a FRET signal at 665 nm is generated upon excitation at 340 nm.
Proteins used as transcription factors (POLRMT: NP_005026.3, TFAM: NP_003192.1, TFB2M: NP_071761.1) are diluted from their stocks to working concentrations of 1 μM, 20 μM and 4 μM respectively, in a dilution buffer containing 20 mM Tris-HCl (pH 8.0), 200 mM NaCl, 10% (v/v) glycerol, 1 mM Dithiothreitol (DTT), 0.5 mM EDTA.
DNA template is a pUC18 plasmid with the mitochondrial light strand promotor sequence (1-477) cloned between HindIII and BamHI sites. The DNA template is restriction linearized proximal to the promotor 3′-end (pUC-LSP).
The reaction mixture (10 uL) containing 7.5 nM POLRMT, 15 nM of TFB2M, 30 nM of TFAM, 0.5 nM of DNA template and 500 μM nucleotide triphosphate mix (NTPs) in a reaction buffer (containing 10 mM Tris-HCl (pH 7.5), 10 mM MgCl2, 40 mM NaCl, 10 mM DTT, 0.005% (w/v) Tween-20, 160 units/ml Rnase inhibitor and 0.1 mg/mL BSA) are dispensed to compounds in microplates, using a Thermo Multidrop® dispenser, and incubated at 37° C. in a VWR INCU-Line incubator for 60 minutes after mixing. No nucleotide triphosphate mix is added to negative control samples. Microplates with compounds to be tested in the assay are prepared from 10 mM compound stocks in 100% DMSO, equal amounts of DMSO without any compound are added to positive control and negative control samples.
During the incubation, a mix of the detection reagents is prepared in a buffer such that the enzymatic reaction is terminated due to chelating of Mg-ions and increased ionic strength, containing 50 mM Tris-HCl (pH 7.5), 700 mM NaCl, 20 mM EDTA, and 0.01% (w/v) Tween-20. Europium-streptavidin is pre-incubated with a 200-fold molar excess of a random sequence oligonucleotide to block unspecific binding of oligo, for two hours at ambient temperature in the dark. Afterwards, the blocked Europium-streptavidin is kept on ice until use.
At the end of the enzymatic reaction time, 5 μL detection oligo mix in the detection buffer is added, and assay plates are mixed and kept at ambient temperature for one hour, protected from light. The concentration of the Acceptor nucleotide oligo (e.g., ATTO647N-5′-[…]-3′) and Donor nucleotide oligo (e.g., bio-5′-AACACATCTCT(-bio)GCCAAACCCCA-bio-3′) in each assay well is 1 nM, and 3 nM, respectively.
After incubation with oligo mix, 5 μL of pre-blocked Europium-streptavidin reagent is dispensed to each assay well, assay plates are again mixed and kept at ambient temperature for one hour, protected from light.
The generated signal is measured with BMG Pherastar microtiter plate reader with a TRF light unit, using excitation at 340 nm, an integration time of 200 μs, and a delay time of 100 μs, before detection at 620 nm and 665 nm. The ratio of donor- and acceptor-fluorescence is used as a measure of the generated transcript product (i.e. enzymatic activity).
As for `Cc1ccccc1-c1cc(=O)oc2nc(N3CCC(F)C3)ccc12` (stereo not drawn) [Example 18, 7-(3-fluoropyrrolidin-1-yl)-4-(o-tolyl)-2H-pyrano[2,3-b]pyridin-2-one], the IC50 stood at 1000 nM.

With `Cc1ccccc1-c1cc(=O)oc2nc(N3CCC(C(N)=O)C3)ccc12` (single isomer, unassigned) [Example 30, 1-(2-oxo-4-(o-tolyl)-2H-pyrano[2,3-b]pyridin-7-yl)pyrrolidine-3-carboxamide], the concentration for half-maximal inhibition (IC50) turned out to be 900 nM. The IC50 values of the last two compounds are within 1.5-fold of each other.

With `Cc1ccccc1-c1cc(=O)oc2nc(N3CCCC3)ccc12` [Example 03, 7-(pyrrolidin-1-yl)-4-(o-tolyl)-2H-pyrano[2,3-b]pyridin-2-one], the IC50 stood at 200 nM.

As for `CNC(=O)CN(C)c1ccc2c(-c3ccccc3C)cc(=O)oc2n1` [Example 39, N-methyl-2-[methyl-[4-(o-tolyl)-2-oxo-pyrano[2,3-b]pyridin-7-yl]amino]acetamide], half-maximal inhibition (IC50) required 1000 nM. Against the preceding compound, the IC50 is about 5-fold higher.

Compound `CNC(=O)CCN(C)c1ccc2c(-c3ccc(F)cc3Cl)cc(=O)oc2n1` [Example 47, 3-((4-(2-chloro-4-fluorophenyl)-2-oxo-2H-pyrano[2,3-b]pyridin-7-yl)(methyl)amino)-N-methylpropanamide] displayed a concentration for half-maximal inhibition (IC50) of 57000 nM. Compared with the last compound, the IC50 is about 57-fold higher.

Consider `Cc1cccc(C)c1-c1cc(=O)oc2nc(N3CCC[C@H]3C(=O)O)ccc12` [Example 50, (4-(2,6-dimethylphenyl)-2-oxo-2H-pyrano[2,3-b]pyridin-7-yl)-L-proline], for which half-maximal inhibition (IC50) required 400 nM.

On to `Cc1ccccc1-c1cc(=O)oc2nc(N3CCOCC3)ccc12` [Example 02, 7-morpholino-4-(o-tolyl)-2H-pyrano[2,3-b]pyridin-2-one], for which the IC50 was 2000 nM.

`Cc1ccccc1-c1cc(=O)oc2nc(N(C)C(C)C(N)=O)ccc12` (single isomer, unassigned) [Example 49, 2-(methyl(2-oxo-4-(o-tolyl)-2H-pyrano[2,3-b]pyridin-7-yl)amino)propanamide] yielded an IC50 of 1000 nM.

With `Cc1ccccc1-c1cc(=O)oc2nc(N(C)CC(=O)NCC(=O)O)ccc12` [Example 60, N-methyl-N-(2-oxo-4-(o-tolyl)-2H-pyrano[2,3-b]pyridin-7-yl)glycylglycine], the half-maximal inhibitory concentration (IC50) was 6000 nM. This IC50 is about 6-fold higher than that of the compound before.

Compound `Cc1ccccc1-c1cc(=O)oc2nc(N3CCC3)ccc12` [Example 19, 7-(azetidin-1-yl)-4-(o-tolyl)-2H-pyrano[2,3-b]pyridin-2-one] gave an IC50 of 300 nM.

For the compound `Cc1ccccc1-c1cc(=O)oc2nc(N3CCCC3C(=O)O)ccc12` (single isomer, unassigned) [Example 38, 1-(2-oxo-4-(o-tolyl)-2H-pyrano[2,3-b]pyridin-7-yl)pyrrolidine-2-carboxylic acid], it took 1000 nM to reach half-maximal inhibition (IC50). Compared with the last compound, the IC50 is about 3.3-fold higher.

For `Cc1ccccc1-c1cc(=O)oc2nc(N3CCN(C)C(=O)C3)ccc12` [Example 11, 7-(4-methyl-3-oxopiperazin-1-yl)-4-(o-tolyl)-2H-pyrano[2,3-b]pyridin-2-one], the IC50 came out at 47000 nM.

`Cc1ccccc1-c1cc(=O)oc2nc(N3CCCC3C(=O)O)ccc12` (single isomer, unassigned) [Example 37, 1-(2-oxo-4-(o-tolyl)-2H-pyrano[2,3-b]pyridin-7-yl)pyrrolidine-2-carboxylic acid] came in with an IC50 of 200 nM.

With `CC(=O)N1CCN(c2ccc3c(-c4ccccc4C)cc(=O)oc3n2)CC1` [Example 06, 7-(4-acetylpiperazin-1-yl)-4-(o-tolyl)-2H-pyrano[2,3-b]pyridin-2-one], the IC50 is > 100000 nM.

For `Cc1cccc(C)c1-c1cc(=O)oc2nc(N3CCC[C@@H]3C(=O)O)ccc12` [Example 51, (4-(2,6-dimethylphenyl)-2-oxo-2H-pyrano[2,3-b]pyridin-7-yl)-D-proline], 100 nM corresponded to half-maximal inhibition (IC50).

For the compound `O=c1cc(-c2ccc(F)cc2Cl)c2ccc(N3CCOCC3)nc2o1` [Example 21, 4-(2-chloro-4-fluorophenyl)-7-morpholino-2H-pyrano[2,3-b]pyridin-2-one], the half-maximal inhibitory concentration (IC50) came out at 3000 nM.

In turn, `Cc1ccccc1-c1cc(=O)oc2nc(N3CCC(N(C)C)C3)ccc12` (stereo not drawn) [Example 08, 7-[3-(dimethylamino)pyrrolidin-1-yl]-4-(o-tolyl)pyrano[2,3-b]pyridin-2-one] yielded an IC50 of 18000 nM.

In turn, `CN(CC(N)=O)c1ccc2c(-c3ccc(F)cc3Cl)cc(=O)oc2n1` [Example 46, 2-((4-(2-chloro-4-fluorophenyl)-2-oxo-2H-pyrano[2,3-b]pyridin-7-yl)(methyl)amino)acetamide] registered an IC50 of 2000 nM.

The compound `COC(=O)[C@H](C)N(C)c1ccc2c(-c3ccc(F)cc3Cl)cc(=O)oc2n1` [Example 53, methyl N-(4-(2-chloro-4-fluorophenyl)-2-oxo-2H-pyrano[2,3-b]pyridin-7-yl)-N-methyl-L-alaninate] displayed a half-inhibitory concentration (IC50) of 1000 nM.

Compound `COC1CCN(c2ccc3c(-c4ccccc4C)cc(=O)oc3n2)C1` (single isomer, unassigned) [Example 23, 7-(3-methoxypyrrolidin-1-yl)-4-(o-tolyl)-2H-pyrano[2,3-b]pyridin-2-one] had a concentration for half-maximal inhibition (IC50) of 90 nM.

`Cc1ccccc1-c1cc(=O)oc2nc(N(C)C(C)C(N)=O)ccc12` (single isomer, unassigned) [Example 48, 2-(methyl(2-oxo-4-(o-tolyl)-2H-pyrano[2,3-b]pyridin-7-yl)amino)propanamide] had an IC50 of 500 nM.

In turn, `CN(CCC(N)=O)c1ccc2c(-c3ccc(F)cc3Cl)cc(=O)oc2n1` [Example 52, 3-((4-(2-chloro-4-fluorophenyl)-2-oxo-2H-pyrano[2,3-b]pyridin-7-yl)(methyl)amino)propanamide] returned an IC50 of 10000 nM. This IC50 is about 20-fold higher than that of the compound before.

`Cc1ccccc1-c1cc(=O)oc2nc(N3CCC(C)(O)C3)ccc12` (racemic) [Example 13, 7-(3-hydroxy-3-methylpyrrolidin-1-yl)-4-(o-tolyl)-2H-pyrano[2,3-b]pyridin-2-one] had a concentration for half-maximal inhibition (IC50) of 300 nM. This IC50 is about 33-fold lower than that of the compound before.

`Cc1ccccc1-c1cc(=O)oc2nc(N3CCC(C(N)=O)C3)ccc12` (racemic) [Example 16, 1-(2-oxo-4-(o-tolyl)-2H-pyrano[2,3-b]pyridin-7-yl)pyrrolidine-3-carboxamide]: the IC50 was 2000 nM.

`COC1CCN(c2ccc3c(-c4ccc(F)cc4Cl)cc(=O)oc3n2)C1` (single isomer, unassigned) [Example 26, 4-(2-chloro-4-fluorophenyl)-7-(3-methoxypyrrolidin-1-yl)-2H-pyrano[2,3-b]pyridin-2-one] returned a 50% inhibitory concentration (IC50) of 21000 nM. Against the preceding compound, the IC50 is about 10-fold higher.

On to `COC1CCN(c2ccc3c(-c4ccc(F)cc4Cl)cc(=O)oc3n2)C1` (single isomer, unassigned) [Example 25, 4-(2-chloro-4-fluorophenyl)-7-(3-methoxypyrrolidin-1-yl)-2H-pyrano[2,3-b]pyridin-2-one], for which the IC50 worked out at 1000 nM.

Compound `CC(=O)NC1CCN(c2ccc3c(-c4ccccc4C)cc(=O)oc3n2)C1` (stereo not drawn) [Example 22, N-(1-(2-oxo-4-(o-tolyl)-2H-pyrano[2,3-b]pyridin-7-yl)pyrrolidin-3-yl)acetamide] displayed a concentration for half-maximal inhibition (IC50) of 3000 nM.

These data come from patent publication US20250066377A1, “AMINO CHROMEN-2-ONE MODULATORS OF POLRMT” (Pretzel Therapeutics, Inc., priority 2021, published 2025).
